Results taken from the CheMixHub ionic liquid set.
“And” between values parts separate entries of the source, which are not always exact repeats. Identical values can stand only once. ± gives the uncertainty stated by the source.

Test: xn = mol fraction of the nth substance listed
Settings: 101.3 kPa

CCCC[N+]1(C)CCCCC1.F[P-](F)(F)(F)(F)F + CCCC[n+]1cccc(C)c1.F[P-](F)(F)(F)(F)F + CCCC[N+]1(C)CCCC1.F[P-](F)(F)(F)(F)F
viscosity
Settings	333.15 K	338.15 K	343.15 K	348.15 K
x2 = 0.2, x1 = 0.32	–	194 ± 8 mPa·s	152 ± 5 mPa·s	121 ± 4 mPa·s
x2 = 0.3, x1 = 0.28	–	163 ± 6 mPa·s	129 ± 4 mPa·s	103 ± 3 mPa·s
x2 = 0.4, x1 = 0.06	–	111 ± 3 mPa·s	89 ± 2 mPa·s	72 ± 2 mPa·s
x2 = 0.4, x1 = 0.12	–	121 ± 3 mPa·s	97 ± 2 mPa·s	78 ± 2 mPa·s
x2 = 0.4, x1 = 0.18	–	125 ± 3 mPa·s	100 ± 2 mPa·s	81 ± 2 mPa·s
x2 = 0.4, x1 = 0.24	–	137 ± 4 mPa·s and 138 ± 5 mPa·s	109 ± 3 mPa·s	87 ± 2 mPa·s and 88 ± 2 mPa·s
x2 = 0.4, x1 = 0.3	–	145 ± 4 mPa·s	115 ± 3 mPa·s	92 ± 2 mPa·s
x2 = 0.4, x1 = 0.36	–	155 ± 4 mPa·s	122 ± 3 mPa·s	97 ± 2 mPa·s
x2 = 0.4, x1 = 0.42	–	165 ± 5 mPa·s	129 ± 3 mPa·s	103 ± 3 mPa·s
x2 = 0.4, x1 = 0.48	–	176 ± 5 mPa·s	137 ± 4 mPa·s	109 ± 3 mPa·s
x2 = 0.4, x1 = 0.54	–	188 ± 5 mPa·s	146 ± 4 mPa·s	116 ± 3 mPa·s
x2 = 0.5, x1 = 0.2	–	117 ± 3 mPa·s	93 ± 2 mPa·s	75 ± 2 mPa·s
x2 = 0.6, x1 = 0.16	127 ± 4 mPa·s	100 ± 3 mPa·s	80 ± 2 mPa·s	65 ± 1 mPa·s
x2 = 0.7, x1 = 0.12	109 ± 3 mPa·s	87 ± 2 mPa·s	70 ± 2 mPa·s	57 ± 1 mPa·s
x2 = 0.8, x1 = 0.08	95 ± 3 mPa·s	76 ± 2 mPa·s	61 ± 1 mPa·s	–
x2 = 0.9, x1 = 0.04	84 ± 2 mPa·s	67 ± 1 mPa·s	54 ± 1 mPa·s	–
